How the values were obtained:
Test in all cases: radiometric filter-binding kinase assay
AURKA (human) = AURKA (human) (UniProt O14965)
AURKB (human) = AURKB (human) (UniProt Q96GD4)
BRSK1 (human) = BRSK1 (human) (UniProt Q8TDC3)
BTK (human) = BTK (human) (UniProt Q06187)
CDK2 CCNA2 (human) = CDK2 CCNA2 (human) (UniProt P20248+P24941)
CHEK1 (human) = CHEK1 (human) (UniProt O14757)
CSNK2A1 (human) = CSNK2A1 (human) (UniProt P68400)
DYRK2 (human) = DYRK2 (human) (UniProt Q92630)
EEF2K (human) = EEF2K (human) (UniProt O00418)
EPHA2 (human) = EPHA2 (human) (UniProt P29317)
ERBB4 (human) = ERBB4 (human) (UniProt Q15303)
FGFR1 (human) = FGFR1 (human) (UniProt P11362)
FLT1 (human) = FLT1 (human) (UniProt P17948)
GCK (human) = GCK (human) (UniProt Q12851)
INSRR (human) = INSRR (human) (UniProt P14616)
MAPK10 (human) = MAPK10 (human) (UniProt P53779)
MAPK12 (human) = MAPK12 (human) (UniProt P53778)
MAPK15 (human) = MAPK15 (human) (UniProt Q8TD08)
MAPKAPK3 (human) = MAPKAPK3 (human) (UniProt Q16644)
MAPKAPK5 (human) = MAPKAPK5 (human) (UniProt Q8IW41)
MELK (human) = MELK (human) (UniProt Q14680)
MINK1 (human) = MINK1 (human) (UniProt Q8N4C8)
MST4 (human) = MST4 (human) (UniProt Q9P289)
[1] = system: PAK2 (human), Q13177 [T402E]
PHKG1 (human) = PHKG1 (human) (UniProt Q16816)
PIM2 (human) = PIM2 (human) (UniProt Q9P1W9)
PIM3 (human) = PIM3 (human) (UniProt Q86V86)
PRKACA (human) = PRKACA (human) (UniProt P17612)
PRKCA (human) = PRKCA (human) (UniProt P17252)
RIPK2 (human) = RIPK2 (human) (UniProt O43353)
RPS6KA3 KD1 KD2 (human) = RPS6KA3 KD1 KD2 (human) (UniProt P51812)
[2] = system: SGK1 (human), O00141 [S422D]
SRPK1 (human) = SRPK1 (human) (UniProt Q96SB4)

PHKG1 (human), sequence (Q16816 whole entry, looked up): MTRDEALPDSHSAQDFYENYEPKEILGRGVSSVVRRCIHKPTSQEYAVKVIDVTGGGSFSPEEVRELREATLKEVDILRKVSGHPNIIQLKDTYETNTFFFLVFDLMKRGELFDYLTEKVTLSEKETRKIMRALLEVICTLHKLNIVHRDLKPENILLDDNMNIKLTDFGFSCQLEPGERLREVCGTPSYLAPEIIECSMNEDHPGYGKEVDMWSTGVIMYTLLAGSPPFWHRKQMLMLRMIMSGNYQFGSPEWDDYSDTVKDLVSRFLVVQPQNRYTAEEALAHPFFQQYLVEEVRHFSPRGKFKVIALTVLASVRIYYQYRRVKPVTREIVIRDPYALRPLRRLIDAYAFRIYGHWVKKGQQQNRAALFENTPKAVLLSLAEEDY
GCK (human), sequence (Q12851 whole entry, looked up): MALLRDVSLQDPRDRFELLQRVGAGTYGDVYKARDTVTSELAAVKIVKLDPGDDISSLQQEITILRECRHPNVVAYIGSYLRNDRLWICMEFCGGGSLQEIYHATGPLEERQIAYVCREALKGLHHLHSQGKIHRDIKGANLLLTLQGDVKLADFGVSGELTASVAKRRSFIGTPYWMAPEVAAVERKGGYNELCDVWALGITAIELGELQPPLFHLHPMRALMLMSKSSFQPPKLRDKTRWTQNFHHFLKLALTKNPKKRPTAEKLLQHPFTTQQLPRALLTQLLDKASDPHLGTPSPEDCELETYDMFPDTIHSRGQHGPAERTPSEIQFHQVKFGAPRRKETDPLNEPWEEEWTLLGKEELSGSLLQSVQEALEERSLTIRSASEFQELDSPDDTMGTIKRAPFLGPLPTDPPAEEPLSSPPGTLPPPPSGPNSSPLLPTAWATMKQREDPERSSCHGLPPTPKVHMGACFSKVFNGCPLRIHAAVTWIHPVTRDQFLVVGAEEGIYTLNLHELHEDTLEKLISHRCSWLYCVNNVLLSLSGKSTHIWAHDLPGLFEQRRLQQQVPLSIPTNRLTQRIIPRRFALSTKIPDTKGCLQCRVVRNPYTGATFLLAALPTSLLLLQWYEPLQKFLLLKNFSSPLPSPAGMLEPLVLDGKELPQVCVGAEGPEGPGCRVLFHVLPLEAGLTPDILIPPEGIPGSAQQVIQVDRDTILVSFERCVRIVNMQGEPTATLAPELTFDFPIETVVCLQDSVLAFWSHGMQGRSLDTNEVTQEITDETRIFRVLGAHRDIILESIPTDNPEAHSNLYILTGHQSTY
BTK (human), sequence (Q06187 whole entry, looked up): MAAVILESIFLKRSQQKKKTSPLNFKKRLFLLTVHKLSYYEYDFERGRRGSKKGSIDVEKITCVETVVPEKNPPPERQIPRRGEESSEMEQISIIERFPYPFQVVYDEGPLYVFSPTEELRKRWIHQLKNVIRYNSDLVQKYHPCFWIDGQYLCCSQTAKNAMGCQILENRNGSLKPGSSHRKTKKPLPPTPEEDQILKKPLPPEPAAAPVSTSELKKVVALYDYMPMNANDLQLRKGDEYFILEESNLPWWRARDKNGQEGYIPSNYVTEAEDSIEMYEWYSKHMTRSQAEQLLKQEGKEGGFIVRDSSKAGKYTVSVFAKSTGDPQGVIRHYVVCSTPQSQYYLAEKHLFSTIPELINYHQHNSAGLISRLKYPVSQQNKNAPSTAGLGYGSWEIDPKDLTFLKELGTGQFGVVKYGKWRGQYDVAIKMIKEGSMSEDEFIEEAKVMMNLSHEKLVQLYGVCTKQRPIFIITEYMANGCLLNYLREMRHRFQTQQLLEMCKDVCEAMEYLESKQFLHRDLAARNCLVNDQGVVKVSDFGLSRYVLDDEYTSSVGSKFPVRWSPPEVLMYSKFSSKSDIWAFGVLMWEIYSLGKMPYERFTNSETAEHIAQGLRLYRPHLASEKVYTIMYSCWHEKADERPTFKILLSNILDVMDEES
MAPKAPK3 (human), sequence (Q16644 whole entry, looked up): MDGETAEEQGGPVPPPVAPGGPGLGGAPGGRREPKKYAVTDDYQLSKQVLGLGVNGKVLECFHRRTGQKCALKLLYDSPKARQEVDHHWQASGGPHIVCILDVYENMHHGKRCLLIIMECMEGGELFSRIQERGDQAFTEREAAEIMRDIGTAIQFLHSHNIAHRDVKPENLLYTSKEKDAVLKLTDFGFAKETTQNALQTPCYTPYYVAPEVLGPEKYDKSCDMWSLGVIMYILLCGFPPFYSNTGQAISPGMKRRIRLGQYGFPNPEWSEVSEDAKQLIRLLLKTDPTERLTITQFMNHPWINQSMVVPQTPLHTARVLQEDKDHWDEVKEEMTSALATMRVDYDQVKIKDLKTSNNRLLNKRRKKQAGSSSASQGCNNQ
EEF2K (human), sequence (O00418 whole entry, looked up): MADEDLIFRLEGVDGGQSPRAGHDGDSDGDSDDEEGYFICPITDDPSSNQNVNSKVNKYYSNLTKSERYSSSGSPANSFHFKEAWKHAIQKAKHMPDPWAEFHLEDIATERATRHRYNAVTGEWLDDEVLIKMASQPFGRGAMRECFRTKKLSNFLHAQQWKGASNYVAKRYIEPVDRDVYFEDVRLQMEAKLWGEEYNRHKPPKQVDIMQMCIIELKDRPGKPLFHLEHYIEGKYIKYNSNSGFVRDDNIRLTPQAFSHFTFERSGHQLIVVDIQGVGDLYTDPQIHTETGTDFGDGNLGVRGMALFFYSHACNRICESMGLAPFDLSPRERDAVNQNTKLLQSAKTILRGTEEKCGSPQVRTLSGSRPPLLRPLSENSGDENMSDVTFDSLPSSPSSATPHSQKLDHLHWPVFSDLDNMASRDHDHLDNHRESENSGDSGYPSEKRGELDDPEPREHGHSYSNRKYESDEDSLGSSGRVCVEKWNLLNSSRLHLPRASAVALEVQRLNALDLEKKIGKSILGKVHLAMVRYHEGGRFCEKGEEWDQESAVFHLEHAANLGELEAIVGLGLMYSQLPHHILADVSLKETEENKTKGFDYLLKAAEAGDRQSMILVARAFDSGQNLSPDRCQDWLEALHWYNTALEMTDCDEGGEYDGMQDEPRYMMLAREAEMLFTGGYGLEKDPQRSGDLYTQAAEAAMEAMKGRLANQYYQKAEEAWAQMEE
SGK1 (human), O00141 [S422D], sequence (O00141 whole entry S422D, looked up): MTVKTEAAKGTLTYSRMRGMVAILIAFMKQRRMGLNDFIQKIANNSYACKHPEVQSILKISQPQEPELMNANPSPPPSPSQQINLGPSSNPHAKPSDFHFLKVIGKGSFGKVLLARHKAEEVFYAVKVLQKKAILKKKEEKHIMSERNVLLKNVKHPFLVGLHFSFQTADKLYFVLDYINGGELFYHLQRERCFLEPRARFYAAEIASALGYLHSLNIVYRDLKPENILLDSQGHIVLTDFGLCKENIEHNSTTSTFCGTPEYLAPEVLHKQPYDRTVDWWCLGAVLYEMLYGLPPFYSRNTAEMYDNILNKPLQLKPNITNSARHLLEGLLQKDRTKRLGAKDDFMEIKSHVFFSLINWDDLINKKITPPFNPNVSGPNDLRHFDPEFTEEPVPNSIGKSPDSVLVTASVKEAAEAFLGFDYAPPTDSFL
EPHA2 (human), sequence (P29317 whole entry, looked up): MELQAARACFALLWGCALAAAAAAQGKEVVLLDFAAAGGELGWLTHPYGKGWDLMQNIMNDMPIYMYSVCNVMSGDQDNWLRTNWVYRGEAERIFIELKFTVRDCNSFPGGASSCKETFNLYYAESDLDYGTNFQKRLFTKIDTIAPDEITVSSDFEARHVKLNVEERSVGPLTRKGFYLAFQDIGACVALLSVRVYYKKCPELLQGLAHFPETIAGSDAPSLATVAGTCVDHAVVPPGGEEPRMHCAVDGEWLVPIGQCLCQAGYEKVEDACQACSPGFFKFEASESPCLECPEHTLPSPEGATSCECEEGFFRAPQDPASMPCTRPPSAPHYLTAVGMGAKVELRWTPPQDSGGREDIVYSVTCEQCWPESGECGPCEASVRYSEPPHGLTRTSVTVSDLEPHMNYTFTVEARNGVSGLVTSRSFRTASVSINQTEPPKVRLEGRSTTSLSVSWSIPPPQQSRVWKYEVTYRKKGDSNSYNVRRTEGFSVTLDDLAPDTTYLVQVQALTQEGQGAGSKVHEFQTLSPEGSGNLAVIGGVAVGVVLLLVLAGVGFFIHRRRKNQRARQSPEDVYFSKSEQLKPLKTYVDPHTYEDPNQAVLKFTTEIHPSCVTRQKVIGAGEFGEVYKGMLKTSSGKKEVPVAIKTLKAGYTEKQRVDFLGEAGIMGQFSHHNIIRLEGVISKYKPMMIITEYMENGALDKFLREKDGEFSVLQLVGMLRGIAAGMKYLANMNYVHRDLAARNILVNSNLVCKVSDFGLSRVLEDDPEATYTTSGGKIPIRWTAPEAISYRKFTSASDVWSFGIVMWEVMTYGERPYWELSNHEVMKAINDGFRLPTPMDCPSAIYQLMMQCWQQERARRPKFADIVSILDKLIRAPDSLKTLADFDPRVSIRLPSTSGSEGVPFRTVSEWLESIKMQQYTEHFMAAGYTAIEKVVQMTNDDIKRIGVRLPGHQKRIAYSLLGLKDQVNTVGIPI
MAPK15 (human), sequence (Q8TD08 whole entry, looked up): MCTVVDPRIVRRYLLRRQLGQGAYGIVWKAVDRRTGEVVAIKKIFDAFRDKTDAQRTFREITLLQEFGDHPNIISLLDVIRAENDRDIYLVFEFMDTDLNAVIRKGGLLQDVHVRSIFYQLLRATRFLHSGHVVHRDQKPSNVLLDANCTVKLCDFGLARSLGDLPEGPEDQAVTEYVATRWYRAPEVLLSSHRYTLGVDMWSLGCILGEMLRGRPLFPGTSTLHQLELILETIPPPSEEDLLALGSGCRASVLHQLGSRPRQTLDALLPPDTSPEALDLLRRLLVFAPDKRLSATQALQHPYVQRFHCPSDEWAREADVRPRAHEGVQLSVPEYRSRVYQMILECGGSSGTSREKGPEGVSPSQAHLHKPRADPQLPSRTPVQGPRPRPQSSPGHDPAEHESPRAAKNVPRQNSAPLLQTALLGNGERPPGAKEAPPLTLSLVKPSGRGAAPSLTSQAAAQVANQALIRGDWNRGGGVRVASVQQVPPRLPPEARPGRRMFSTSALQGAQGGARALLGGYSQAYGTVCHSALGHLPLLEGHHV

residual activity (AURKA (human); compound 0.1 µM): 95% | residual activity (AURKA (human); compound 1.0 µM): 99% | residual activity (AURKA (human); compound 10.0 µM): 89% | residual activity (AURKB (human); compound 0.1 µM): 110% | residual activity (AURKB (human); compound 1.0 µM): 96% | residual activity (AURKB (human); compound 10.0 µM): 43% | residual activity (BRSK1 (human); compound 0.1 µM): 102% | residual activity (BRSK1 (human); compound 1.0 µM): 81% | residual activity (BRSK1 (human); compound 10.0 µM): 89% | residual activity (BTK (human); compound 1.0 µM): 94% | residual activity (BTK (human); compound 10.0 µM): 30% | residual activity (CDK2 CCNA2 (human); compound 0.1 µM): 97% | residual activity (CDK2 CCNA2 (human); compound 1.0 µM): 87% | residual activity (CDK2 CCNA2 (human); compound 10.0 µM): 35% | residual activity (CHEK1 (human); compound 0.1 µM): 100% | residual activity (CHEK1 (human); compound 1.0 µM): 64% | residual activity (CHEK1 (human); compound 10.0 µM): 29% | residual activity (CSNK2A1 (human); compound 0.1 µM): 91% | residual activity (CSNK2A1 (human); compound 1.0 µM): 94% | residual activity (CSNK2A1 (human); compound 10.0 µM): 100% | residual activity (DYRK2 (human); compound 0.1 µM): 101% | residual activity (DYRK2 (human); compound 1.0 µM): 77% | residual activity (DYRK2 (human); compound 10.0 µM): 88% | residual activity (EEF2K (human); compound 0.1 µM): 124% | residual activity (EEF2K (human); compound 1.0 µM): 114% | residual activity (EEF2K (human); compound 10.0 µM): 117% | residual activity (EPHA2 (human); compound 0.1 µM): 87% | residual activity (EPHA2 (human); compound 1.0 µM): 78% | residual activity (EPHA2 (human); compound 10.0 µM): 86% | residual activity (ERBB4 (human); compound 1.0 µM): 40% | residual activity (ERBB4 (human); compound 10.0 µM): 17% | residual activity (FGFR1 (human); compound 0.1 µM): 104% | residual activity (FGFR1 (human); compound 1.0 µM): 96% | residual activity (FGFR1 (human); compound 10.0 µM): 85% | residual activity (FLT1 (human); compound 0.1 µM): 100% | residual activity (FLT1 (human); compound 1.0 µM): 55% | residual activity (FLT1 (human); compound 10.0 µM): 22% | residual activity (GCK (human); compound 0.1 µM): 7% | residual activity (GCK (human); compound 1.0 µM): 6% | residual activity (GCK (human); compound 10.0 µM): 5% | residual activity (INSRR (human); compound 0.1 µM): 66% | residual activity (INSRR (human); compound 1.0 µM): 26% | residual activity (INSRR (human); compound 10.0 µM): 16% | residual activity (MAPK10 (human); compound 0.1 µM): 97% | residual activity (MAPK10 (human); compound 10.0 µM): 46% | residual activity (MAPK12 (human); compound 0.1 µM): 93% | residual activity (MAPK12 (human); compound 1.0 µM): 76% | residual activity (MAPK12 (human); compound 10.0 µM): 38% | residual activity (MAPKAPK3 (human); compound 0.1 µM): 93% | residual activity (MAPKAPK3 (human); compound 1.0 µM): 84% | residual activity (MAPKAPK3 (human); compound 10.0 µM): 69% | residual activity (MAPKAPK5 (human); compound 0.1 µM): 87% | residual activity (MAPKAPK5 (human); compound 1.0 µM): 42% | residual activity (MAPKAPK5 (human); compound 10.0 µM): 15% | residual activity (MELK (human); compound 0.1 µM): 99% | residual activity (MELK (human); compound 1.0 µM): 57% | residual activity (MELK (human); compound 10.0 µM): 15% | residual activity (MINK1 (human); compound 0.1 µM): 58% | residual activity (MINK1 (human); compound 1.0 µM): 12% | residual activity (MINK1 (human); compound 10.0 µM): 4% | residual activity (MST4 (human); compound 0.1 µM): 102% | residual activity (MST4 (human); compound 1.0 µM): 75% | residual activity (MST4 (human); compound 10.0 µM): 35% | residual activity ([1]; compound 0.1 µM): 100% | residual activity ([1]; compound 1.0 µM): 93% | residual activity ([1]; compound 10.0 µM): 84% | residual activity (PHKG1 (human); compound 0.1 µM): 104% | residual activity (PHKG1 (human); compound 1.0 µM): 92% | residual activity (PHKG1 (human); compound 10.0 µM): 55% | residual activity (PIM2 (human); compound 0.1 µM): 98% | residual activity (PIM2 (human); compound 1.0 µM): 95% | residual activity (PIM2 (human); compound 10.0 µM): 81% | residual activity (PIM3 (human); compound 0.1 µM): 101% | residual activity (PIM3 (human); compound 1.0 µM): 88% | residual activity (PIM3 (human); compound 10.0 µM): 42% | residual activity (PRKACA (human); compound 0.1 µM): 80% | residual activity (PRKACA (human); compound 1.0 µM): 103% | residual activity (PRKACA (human); compound 10.0 µM): 96% | residual activity (PRKCA (human); compound 0.1 µM): 94% | residual activity (PRKCA (human); compound 1.0 µM): 64% | residual activity (PRKCA (human); compound 10.0 µM): 18% | residual activity (RIPK2 (human); compound 0.1 µM): 86% | residual activity (RIPK2 (human); compound 1.0 µM): 36% | residual activity (RIPK2 (human); compound 10.0 µM): 12% | residual activity (RPS6KA3 KD1 KD2 (human); compound 0.1 µM): 108% | residual activity (RPS6KA3 KD1 KD2 (human); compound 1.0 µM): 84% | residual activity (RPS6KA3 KD1 KD2 (human); compound 10.0 µM): 53% | residual activity ([2]; compound 0.1 µM): 92% | residual activity ([2]; compound 1.0 µM): 58% | residual activity ([2]; compound 10.0 µM): 46% | residual activity (SRPK1 (human); compound 0.1 µM): 87% | residual activity (SRPK1 (human); compound 1.0 µM): 67% | residual activity (SRPK1 (human); compound 10.0 µM): 17%
SMILES: NC(=O)c1cc2c(-c3cccc(-c4ccccc4)c3)cnc(N)c2s1
residual activity (MAPK15 (human); compound 0.1 µM): 99% | residual activity (MAPK15 (human); compound 1.0 µM): 50% | residual activity (MAPK15 (human); compound 10.0 µM): 23%
